Measurements from ChEMBL document CHEMBL5465560, “Selectivity Literature for EUbOPEN Chemogenomic Library” (2024).
pIC50: −log10 of the molar value. Each block holds one compound with its values, some of them ahead of it.

Columns and labels:
[1] = target: T1, Inhibitor of nuclear factor kappa-B kinase subunit beta (Homo sapiens) (UniProt O14920); test: Selectivity interaction (Millipore kinase profiler) EUB0000124b IKBKB; details: at 10 µM
T1 sequence (whole entry): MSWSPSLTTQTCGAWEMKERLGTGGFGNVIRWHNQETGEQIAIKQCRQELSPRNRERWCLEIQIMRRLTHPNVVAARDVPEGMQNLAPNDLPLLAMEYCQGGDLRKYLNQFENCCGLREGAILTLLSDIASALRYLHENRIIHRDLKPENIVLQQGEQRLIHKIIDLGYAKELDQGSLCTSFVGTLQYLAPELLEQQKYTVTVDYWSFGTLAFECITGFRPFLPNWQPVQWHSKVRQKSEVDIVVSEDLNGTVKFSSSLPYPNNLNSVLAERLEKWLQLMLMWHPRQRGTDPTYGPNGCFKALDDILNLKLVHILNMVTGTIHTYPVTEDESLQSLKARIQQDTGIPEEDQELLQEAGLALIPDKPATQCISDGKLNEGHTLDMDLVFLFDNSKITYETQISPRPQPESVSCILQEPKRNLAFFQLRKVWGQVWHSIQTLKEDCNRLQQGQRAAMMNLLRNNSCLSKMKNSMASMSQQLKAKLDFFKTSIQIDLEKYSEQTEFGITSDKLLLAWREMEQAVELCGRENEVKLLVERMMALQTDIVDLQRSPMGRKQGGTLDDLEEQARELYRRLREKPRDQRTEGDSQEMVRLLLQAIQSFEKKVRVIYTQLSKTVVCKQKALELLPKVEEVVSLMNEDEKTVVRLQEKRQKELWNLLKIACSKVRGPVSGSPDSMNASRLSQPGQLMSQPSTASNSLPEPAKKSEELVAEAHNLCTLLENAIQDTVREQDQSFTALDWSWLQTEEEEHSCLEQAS

[2] = target: Serine/threonine-protein kinase Nek7 (Homo sapiens) (UniProt Q8TDX7); test: Selectivity interaction (Kinase panel (Invitrogen)) EUB0000639a NEK7; details: at 200 nM
Serine/threonine-protein kinase Nek7 (Homo sapiens), sequence (Q8TDX7 whole entry, looked up): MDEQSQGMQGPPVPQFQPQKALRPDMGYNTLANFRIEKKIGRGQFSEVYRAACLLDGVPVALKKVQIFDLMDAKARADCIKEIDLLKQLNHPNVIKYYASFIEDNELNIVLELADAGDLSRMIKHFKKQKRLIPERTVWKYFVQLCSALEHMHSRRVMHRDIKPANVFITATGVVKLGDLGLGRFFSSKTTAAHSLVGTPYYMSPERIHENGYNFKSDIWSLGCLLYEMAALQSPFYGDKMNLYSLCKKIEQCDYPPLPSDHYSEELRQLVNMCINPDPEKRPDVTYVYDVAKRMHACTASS

[3] = target: Protein arginine N-methyltransferase 1 (Homo sapiens, UniProt Q99873); details: at 10 µM
Protein arginine N-methyltransferase 1, sequence (Q99873 whole entry, looked up): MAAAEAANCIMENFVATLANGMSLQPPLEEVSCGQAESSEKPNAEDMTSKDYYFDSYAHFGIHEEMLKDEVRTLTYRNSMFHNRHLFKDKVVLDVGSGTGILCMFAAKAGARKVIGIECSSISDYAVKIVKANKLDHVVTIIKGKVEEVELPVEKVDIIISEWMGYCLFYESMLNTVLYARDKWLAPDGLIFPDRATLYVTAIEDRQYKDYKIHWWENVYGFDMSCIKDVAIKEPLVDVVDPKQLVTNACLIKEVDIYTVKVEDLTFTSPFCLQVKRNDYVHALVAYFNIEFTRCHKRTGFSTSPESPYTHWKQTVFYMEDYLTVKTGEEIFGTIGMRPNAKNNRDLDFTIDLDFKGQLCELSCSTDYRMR

[4] = target: High affinity nerve growth factor receptor (Homo sapiens, UniProt P04629)
High affinity nerve growth factor receptor, sequence (P04629 whole entry): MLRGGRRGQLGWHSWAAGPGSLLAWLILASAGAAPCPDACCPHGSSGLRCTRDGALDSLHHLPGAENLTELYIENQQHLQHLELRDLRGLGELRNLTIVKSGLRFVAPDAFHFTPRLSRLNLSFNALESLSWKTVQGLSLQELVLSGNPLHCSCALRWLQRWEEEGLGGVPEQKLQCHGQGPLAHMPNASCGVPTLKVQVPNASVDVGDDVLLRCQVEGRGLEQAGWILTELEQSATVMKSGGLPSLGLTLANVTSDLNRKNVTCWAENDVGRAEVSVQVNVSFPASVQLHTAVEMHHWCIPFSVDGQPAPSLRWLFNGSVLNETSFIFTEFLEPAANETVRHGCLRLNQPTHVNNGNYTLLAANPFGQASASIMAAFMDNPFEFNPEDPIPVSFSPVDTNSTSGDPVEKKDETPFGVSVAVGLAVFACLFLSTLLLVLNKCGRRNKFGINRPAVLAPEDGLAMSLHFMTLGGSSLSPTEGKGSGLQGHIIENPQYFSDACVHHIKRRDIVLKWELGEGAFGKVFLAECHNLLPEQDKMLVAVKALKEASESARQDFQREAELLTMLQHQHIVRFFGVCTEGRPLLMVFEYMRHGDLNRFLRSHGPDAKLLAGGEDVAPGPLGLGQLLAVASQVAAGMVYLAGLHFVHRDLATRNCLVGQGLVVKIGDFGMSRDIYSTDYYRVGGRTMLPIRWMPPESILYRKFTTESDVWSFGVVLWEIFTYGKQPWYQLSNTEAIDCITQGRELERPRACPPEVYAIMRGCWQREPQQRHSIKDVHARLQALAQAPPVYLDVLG

[5] = target: Ephrin type-A receptor 7 (Homo sapiens) (UniProt Q15375); test: Selectivity interaction (LanthaScreen Eu Kinase Binding Assay) EUB0001632a EPHA7; details: at 10 µM
Ephrin type-A receptor 7 (Homo sapiens), sequence (Q15375 28-998 limits assumed): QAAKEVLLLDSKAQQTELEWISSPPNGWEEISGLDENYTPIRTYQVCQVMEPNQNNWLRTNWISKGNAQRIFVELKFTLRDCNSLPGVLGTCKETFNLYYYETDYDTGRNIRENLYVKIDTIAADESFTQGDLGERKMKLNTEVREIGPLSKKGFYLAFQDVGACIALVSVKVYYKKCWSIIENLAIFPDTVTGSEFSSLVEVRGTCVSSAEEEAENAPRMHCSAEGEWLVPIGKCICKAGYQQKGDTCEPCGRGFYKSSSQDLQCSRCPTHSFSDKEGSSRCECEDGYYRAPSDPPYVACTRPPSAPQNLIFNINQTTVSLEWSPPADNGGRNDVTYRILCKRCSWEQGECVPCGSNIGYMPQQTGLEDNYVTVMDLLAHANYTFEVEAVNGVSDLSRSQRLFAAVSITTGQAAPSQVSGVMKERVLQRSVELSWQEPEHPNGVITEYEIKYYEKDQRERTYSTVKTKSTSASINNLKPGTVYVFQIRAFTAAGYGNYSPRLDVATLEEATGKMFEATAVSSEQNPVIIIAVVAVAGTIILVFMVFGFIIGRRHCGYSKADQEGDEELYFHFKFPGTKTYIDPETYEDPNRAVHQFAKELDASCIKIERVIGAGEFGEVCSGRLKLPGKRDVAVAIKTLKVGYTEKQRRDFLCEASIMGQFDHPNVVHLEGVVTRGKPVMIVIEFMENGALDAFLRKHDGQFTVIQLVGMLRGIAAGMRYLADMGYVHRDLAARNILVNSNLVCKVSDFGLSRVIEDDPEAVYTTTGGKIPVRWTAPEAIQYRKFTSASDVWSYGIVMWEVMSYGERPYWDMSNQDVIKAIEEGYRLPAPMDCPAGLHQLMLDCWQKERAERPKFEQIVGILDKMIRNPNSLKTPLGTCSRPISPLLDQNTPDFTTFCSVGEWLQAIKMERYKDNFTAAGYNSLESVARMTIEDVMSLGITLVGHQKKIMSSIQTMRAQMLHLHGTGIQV

[6] = target: T2, Rhodopsin kinase GRK1 (Homo sapiens) (UniProt Q15835); test: Selectivity interaction (KinomeScan (DiscoverX)) EUB0000595a GRK1; details: at 10 µM
T2 sequence (whole entry): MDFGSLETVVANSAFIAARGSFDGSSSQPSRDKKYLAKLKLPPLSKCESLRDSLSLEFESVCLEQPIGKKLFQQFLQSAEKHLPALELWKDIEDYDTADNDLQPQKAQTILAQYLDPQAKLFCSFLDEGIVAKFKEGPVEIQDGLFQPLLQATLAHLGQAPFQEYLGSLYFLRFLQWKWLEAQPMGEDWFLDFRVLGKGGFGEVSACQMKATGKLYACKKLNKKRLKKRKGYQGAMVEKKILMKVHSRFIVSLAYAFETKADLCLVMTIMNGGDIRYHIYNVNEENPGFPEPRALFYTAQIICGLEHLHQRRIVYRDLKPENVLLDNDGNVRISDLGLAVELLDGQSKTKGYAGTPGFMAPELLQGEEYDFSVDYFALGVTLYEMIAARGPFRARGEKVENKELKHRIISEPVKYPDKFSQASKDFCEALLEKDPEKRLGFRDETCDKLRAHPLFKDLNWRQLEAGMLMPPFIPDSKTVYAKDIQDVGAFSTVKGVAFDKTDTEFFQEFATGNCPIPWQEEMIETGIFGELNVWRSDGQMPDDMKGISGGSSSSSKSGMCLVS

[7] = target: T3, Mitogen-activated protein kinase kinase kinase 3 (Homo sapiens) (UniProt Q99759); test: Selectivity interaction (KinomeScan (DiscoverX)) EUB0000229b MAP3K3; details: at 10 µM
T3 sequence (whole entry): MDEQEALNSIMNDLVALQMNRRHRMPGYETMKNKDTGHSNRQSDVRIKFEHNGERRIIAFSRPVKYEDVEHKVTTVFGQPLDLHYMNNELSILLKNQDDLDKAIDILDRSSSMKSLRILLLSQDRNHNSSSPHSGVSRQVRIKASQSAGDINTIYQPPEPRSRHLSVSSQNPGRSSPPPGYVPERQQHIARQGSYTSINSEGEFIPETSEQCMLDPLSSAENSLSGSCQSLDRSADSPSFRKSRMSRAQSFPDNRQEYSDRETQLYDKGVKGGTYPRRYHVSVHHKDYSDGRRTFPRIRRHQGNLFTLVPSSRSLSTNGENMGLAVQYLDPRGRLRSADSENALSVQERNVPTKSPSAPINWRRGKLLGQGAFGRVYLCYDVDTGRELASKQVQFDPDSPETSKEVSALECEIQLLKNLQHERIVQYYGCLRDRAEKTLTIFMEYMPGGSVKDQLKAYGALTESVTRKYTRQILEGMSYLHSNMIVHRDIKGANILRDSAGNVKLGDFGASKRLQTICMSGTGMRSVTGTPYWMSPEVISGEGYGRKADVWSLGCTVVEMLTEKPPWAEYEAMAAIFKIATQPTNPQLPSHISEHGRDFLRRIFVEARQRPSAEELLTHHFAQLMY

[8] = target: Insulin receptor-related protein (Homo sapiens) (UniProt P14616); test: Selectivity interaction (KinomeScan (DiscoverX)) EUB0001079a INSRR; details: at 1 µM
Insulin receptor-related protein (Homo sapiens), sequence (P14616 27-742 limits assumed): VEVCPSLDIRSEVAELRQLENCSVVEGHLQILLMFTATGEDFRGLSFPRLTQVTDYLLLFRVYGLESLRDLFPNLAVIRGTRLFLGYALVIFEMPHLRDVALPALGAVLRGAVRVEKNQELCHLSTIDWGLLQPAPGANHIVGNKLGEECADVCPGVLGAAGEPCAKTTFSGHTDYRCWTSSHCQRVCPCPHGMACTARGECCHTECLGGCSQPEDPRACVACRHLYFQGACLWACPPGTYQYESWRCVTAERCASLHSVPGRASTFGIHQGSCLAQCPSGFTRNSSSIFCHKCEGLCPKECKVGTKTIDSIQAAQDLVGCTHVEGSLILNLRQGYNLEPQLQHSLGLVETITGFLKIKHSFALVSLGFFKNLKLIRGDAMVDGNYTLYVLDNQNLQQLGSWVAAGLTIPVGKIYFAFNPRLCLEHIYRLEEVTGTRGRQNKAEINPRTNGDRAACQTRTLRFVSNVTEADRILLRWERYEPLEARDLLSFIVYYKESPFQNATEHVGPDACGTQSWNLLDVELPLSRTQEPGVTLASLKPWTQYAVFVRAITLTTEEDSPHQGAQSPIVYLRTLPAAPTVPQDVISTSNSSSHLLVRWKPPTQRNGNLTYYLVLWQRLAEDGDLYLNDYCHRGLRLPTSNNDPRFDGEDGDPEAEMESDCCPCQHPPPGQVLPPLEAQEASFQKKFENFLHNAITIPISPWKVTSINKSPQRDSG
Insulin receptor-related protein (Homo sapiens), sequence (P14616 747-1297 limits assumed): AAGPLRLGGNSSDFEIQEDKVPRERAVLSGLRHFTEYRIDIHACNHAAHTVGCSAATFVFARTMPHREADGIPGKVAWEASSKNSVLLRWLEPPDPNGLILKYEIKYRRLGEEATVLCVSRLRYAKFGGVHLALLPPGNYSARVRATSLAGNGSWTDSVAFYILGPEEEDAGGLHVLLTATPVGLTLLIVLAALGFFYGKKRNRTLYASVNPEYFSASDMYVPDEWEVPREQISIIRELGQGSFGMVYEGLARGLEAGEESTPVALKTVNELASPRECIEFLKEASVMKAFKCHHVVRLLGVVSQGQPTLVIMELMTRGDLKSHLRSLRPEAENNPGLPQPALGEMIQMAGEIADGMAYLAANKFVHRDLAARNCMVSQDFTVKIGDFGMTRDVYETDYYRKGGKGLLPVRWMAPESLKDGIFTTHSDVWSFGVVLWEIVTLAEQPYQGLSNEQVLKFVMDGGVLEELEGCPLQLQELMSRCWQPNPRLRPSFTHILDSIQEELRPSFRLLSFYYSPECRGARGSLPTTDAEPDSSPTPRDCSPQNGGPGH

[9] = target: T4, Serine/threonine-protein kinase STK11 (Homo sapiens) (UniProt Q15831); test: Selectivity interaction (Upstate Kinase Profiler service (Millipore)) EUB0000056c STK11; details: at 1 µM
T4 sequence (whole entry): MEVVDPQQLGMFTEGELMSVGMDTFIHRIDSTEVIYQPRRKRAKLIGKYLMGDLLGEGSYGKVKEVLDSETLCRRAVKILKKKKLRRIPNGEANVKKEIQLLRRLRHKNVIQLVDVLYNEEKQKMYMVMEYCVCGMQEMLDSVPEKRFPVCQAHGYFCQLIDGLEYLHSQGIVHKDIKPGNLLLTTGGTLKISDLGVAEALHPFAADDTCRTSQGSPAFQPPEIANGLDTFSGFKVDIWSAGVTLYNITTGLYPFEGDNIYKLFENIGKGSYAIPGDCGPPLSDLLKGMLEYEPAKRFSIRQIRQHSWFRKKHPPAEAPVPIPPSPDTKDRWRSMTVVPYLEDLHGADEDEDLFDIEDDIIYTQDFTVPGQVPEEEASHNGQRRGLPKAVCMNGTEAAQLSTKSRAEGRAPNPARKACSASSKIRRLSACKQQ

[10] = target: Receptor tyrosine-protein kinase erbB-3 (Homo sapiens) (UniProt P21860); test: Selectivity interaction (KinomeScan (DiscoverX)) EUB0001619a ERBB3; details: at 1 µM
[11] = target: Tyrosine-protein kinase Lyn (Homo sapiens, UniProt P07948); test: Selectivity interaction (KinomeScan (DiscoverX)) EUB0000618a LYN; details: at 10 µM
Tyrosine-protein kinase Lyn, sequence (P07948 2-512 limits assumed): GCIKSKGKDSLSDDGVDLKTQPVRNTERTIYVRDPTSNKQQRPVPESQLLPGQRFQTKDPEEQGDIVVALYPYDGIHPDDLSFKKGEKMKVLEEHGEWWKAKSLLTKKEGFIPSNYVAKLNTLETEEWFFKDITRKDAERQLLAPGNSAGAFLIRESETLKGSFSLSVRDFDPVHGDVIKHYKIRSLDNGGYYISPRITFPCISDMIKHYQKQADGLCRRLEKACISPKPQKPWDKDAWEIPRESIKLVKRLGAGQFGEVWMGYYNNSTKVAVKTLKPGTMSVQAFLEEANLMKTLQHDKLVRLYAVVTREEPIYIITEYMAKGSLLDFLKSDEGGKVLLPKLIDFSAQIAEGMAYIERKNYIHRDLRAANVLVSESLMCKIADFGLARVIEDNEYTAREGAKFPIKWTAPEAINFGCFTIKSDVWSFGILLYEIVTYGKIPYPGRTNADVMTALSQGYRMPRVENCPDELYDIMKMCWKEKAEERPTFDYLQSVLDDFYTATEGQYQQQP

Structure (SMILES): COCC(=O)NC/C=C/c1ccc2ncnc(Nc3ccc(Oc4ccc(C)nc4)c(C)c3)c2c1 [CP-724714]
% of control [6]: 100%

Structure (SMILES): COc1cc(N(C)c2ccnc3ccc(C(F)(F)F)cc23)cc(OC)c1OC
% binding [7]: 89%

Structure (SMILES): Nc1cnc(N2CCc3cc(S(=O)(=O)Nc4c(F)cc(Cl)cc4F)cc(N4CCCC4=O)c32)nc1 [TP-020n]
% of control [8]: 100%

Structure (SMILES): N#Cc1cccc(-c2c[nH]c3ncnc(N4CCOCC4)c23)c1
% of control [10]: 51%

Structure (SMILES): O[C@H]1CC[C@H](Nc2ncc3nc(Nc4c(F)cc(F)cc4F)n([C@H]4CCOC4)c3n2)CC1
% of control [11]: 98%

Results, then the compound that gave them:

% of control [1]: 111%
Structure (SMILES): CC(=O)Nc1cccc(-n2c(=O)n(C3CC3)c(=O)c3c(Nc4ccc(I)cc4F)n(C)c(=O)c(C)c32)c1

% of inhibition [2]: -1.03%
Structure (SMILES): CC[C@@H]1[C@H](F)C(=O)N[C@@H]1COc1nccc2cc(C(N)=O)c(OC)cc12 [ZIMLOVISERTIB]

% activity [3]: > 90%
Structure (SMILES): CNCCN1CCC(c2cc(CN(C)C(=O)c3cccc(Oc4ccccc4)c3)ccn2)CC1

pIC50 [4]: < 5.00
Structure (SMILES): CCc1cccc(CC)c1NC(=O)c1nn(C)c2c1CCc1cnc(Nc3ccc(C(=O)NC4CCN(C)CC4)cc3OC(F)(F)F)nc1-2

% of inhibition [5]: -69.8%
Structure (SMILES): Cn1cc(-n2cnc3c(NCc4nc5cc(Cl)c(Cl)cc5[nH]4)nc(N4CCOCC4)nc32)cn1

% of inhibition [9]: -15%
Structure (SMILES): Cc1ccc(-c2ccc3c(ccc4sc5c(c43)NC[C@@H](C)NC5=O)n2)cn1
